Test results taken from article PMC8488497, “In silico and in vitro analysis of an Aspergillus niger chitin deacetylase to decipher its subsite sugar preferences” (The Journal of Biological Chemistry, 2021).

Target: T1, AngCDA (Aspergillus niger, UniProt A2QZC8)
T1 construct: gene An12g04480; signal peptide (residues 1-19) removed; N- and C-terminal Strep-tag II; E. coli Rosetta 2 (DE3); monomer; the crystal used a pelB / C-terminal Strep-tag II construct
T1 sequence (A2QZC8 20-239): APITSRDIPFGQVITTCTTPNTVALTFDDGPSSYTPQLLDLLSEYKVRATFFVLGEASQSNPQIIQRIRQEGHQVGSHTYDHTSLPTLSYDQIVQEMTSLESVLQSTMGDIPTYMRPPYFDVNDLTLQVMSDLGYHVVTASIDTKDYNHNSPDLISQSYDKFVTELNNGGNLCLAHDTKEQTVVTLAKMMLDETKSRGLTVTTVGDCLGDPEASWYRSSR
Test: HILIC-ESI-MS product quantification and sequencing
Format: biochemical
Conditions: deacetylation; 0.5 mM substrate, 50 mM TEA pH 7, 37 °C

Structure (SMILES)	HILIC-ESI-MS product quantification and sequencing
CC(=O)N[C@H]1[C@H](O[C@H]2[C@H](O)[C@@H](NC(C)=O)C(O)O[C@@H]2CO)O[C@H](CO)[C@@H](O[C@@H]2O[C@H](CO)[C@@H](O[C@@H]3O[C@H](CO)[C@@H](O)[C@H](O)[C@H]3NC(C)=O)[C@H](O)[C@H]2NC(C)=O)[C@@H]1O (some centres unmarked) [A4, chitotetraose]	mode of action of AngCDA deacetylating chitotetraose (A4)
CC(=O)N[C@H]1[C@H](O[C@H]2[C@H](O)[C@@H](NC(C)=O)[C@H](O[C@H]3[C@H](O)[C@@H](NC(C)=O)C(O)O[C@@H]3CO)O[C@@H]2CO)O[C@H](CO)[C@@H](O[C@@H]2O[C@H](CO)[C@@H](O[C@@H]3O[C@H](CO)[C@@H](O)[C@H](O)[C@H]3NC(C)=O)[C@H](O)[C@H]2NC(C)=O)[C@@H]1O (some centres unmarked) [A5]	mode of action of AngCDA deacetylating chitopentaose (A5)
